Data taken from article PMC10035947, “Development of novel anilinoquinazoline-based carboxylic acids as non-classical carbonic anhydrase IX and XII inhibitors” (Journal of Enzyme Inhibition and Medicinal Chemistry, 2023).

Columns and labels:
[1] = test system: OVCAR-3; experiment: NCI SRB assay; assay type: cell-based, human
[2] = test system: BT-549; experiment: NCI SRB assay; assay type: cell-based, human
[3] = test system: HS 578 T; experiment: NCI SRB assay; assay type: cell-based, human
[4] = test system: SW-620; experiment: NCI SRB assay; assay type: cell-based, human
[5] = test system: UACC-257; experiment: NCI SRB assay; assay type: cell-based, human
[6] = test system: SK-MEL-28; experiment: NCI SRB assay; assay type: cell-based, human
[7] = target: T1, hCA IX (Homo sapiens, UniProt Q16790); experiment: stopped flow CO2 hydrase assay; assay type: biochemical
T1 construct: made in house
Outline: (§1)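 Recombinant enzymes assayed by stopped-flow CO2 hydration using 0.2 mM phenol red at 557 nm in 20 mM Hepes pH 7.5 with 20 mM Na2SO4, CO2 1.7–17 mM. Inhibitor and enzyme preincubated 15 min at room temperature.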

[8] = target: T2, hCA XII (Homo sapiens, UniProt O43570); experiment: stopped flow CO2 hydrase assay; assay type: biochemical
T2 construct: made in house
Outline: as §1

[9] = target: T3, hCA I (Homo sapiens, UniProt P00915); experiment: stopped flow CO2 hydrase assay; assay type: biochemical; conditions: mean from 3 assays
T3 construct: made in house
Outline: as §1

[10] = test system: OVCAR-5; experiment: NCI SRB assay; assay type: cell-based, human
[11] = test system: ACHN; experiment: NCI SRB assay; assay type: cell-based, human
[12] = test system: RPMI-8226; experiment: NCI SRB assay; assay type: cell-based, human
[13] = test system: UACC-62; experiment: NCI SRB assay; assay type: cell-based, human
[14] = test system: KM12; experiment: NCI SRB assay; assay type: cell-based, human
[15] = test system: MOLT-4; experiment: NCI SRB assay; assay type: cell-based, human
[16] = test system: OVCAR-4; experiment: NCI SRB assay; assay type: cell-based, human
[17] = test system: NCI-H226; experiment: NCI SRB assay; assay type: cell-based, human
[18] = test system: HCC-2998; experiment: NCI SRB assay; assay type: cell-based, human
[19] = test system: SF-539; experiment: NCI SRB assay; assay type: cell-based, human
[20] = test system: 786-0; experiment: NCI SRB assay; assay type: cell-based, human
[21] = test system: IGROV1; experiment: NCI SRB assay; assay type: cell-based, human
[22] = test system: NCI/ADR-RES; experiment: NCI SRB assay; assay type: cell-based, human
[23] = test system: MDA-MB-435; experiment: NCI SRB assay; assay type: cell-based
[24] = test system: MALME-3M; experiment: NCI SRB assay; assay type: cell-based, human
[25] = test system: T-47D; experiment: NCI SRB assay; assay type: cell-based, human
[26] = test system: COLO 205; experiment: NCI SRB assay; assay type: cell-based, human
[27] = test system: U251; experiment: NCI SRB assay; assay type: cell-based, human

T2 sequence (O43570 25-354): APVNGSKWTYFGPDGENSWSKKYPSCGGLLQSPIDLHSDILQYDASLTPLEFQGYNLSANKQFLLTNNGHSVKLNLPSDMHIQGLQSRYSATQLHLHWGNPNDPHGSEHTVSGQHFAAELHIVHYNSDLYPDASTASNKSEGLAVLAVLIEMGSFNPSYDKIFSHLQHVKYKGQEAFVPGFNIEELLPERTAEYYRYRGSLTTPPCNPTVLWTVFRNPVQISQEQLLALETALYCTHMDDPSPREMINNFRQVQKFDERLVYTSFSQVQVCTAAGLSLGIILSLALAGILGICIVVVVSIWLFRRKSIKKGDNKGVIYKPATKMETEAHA
T3 sequence (P00915 whole entry): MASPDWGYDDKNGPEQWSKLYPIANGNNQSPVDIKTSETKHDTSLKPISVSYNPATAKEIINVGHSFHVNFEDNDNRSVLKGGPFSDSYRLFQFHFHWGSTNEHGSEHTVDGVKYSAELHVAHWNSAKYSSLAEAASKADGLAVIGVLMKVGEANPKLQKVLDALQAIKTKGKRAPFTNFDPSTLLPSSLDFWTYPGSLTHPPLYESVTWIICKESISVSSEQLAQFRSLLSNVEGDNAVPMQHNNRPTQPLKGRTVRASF

COc1ccc(-c2nc(Nc3ccccc3C(=O)O)c3ccccc3n2)cc1 [6c, 2-((2–(4-Methoxyphenyl)quinazolin-4-yl)amino)benzoic acid]
GI% ([1]; OVCAR-3, 10 μM): 54%
Growth Percent ([1]; OVCAR-3, 1.00E-5 Molar): 43.93%
GI% ([2]; BT-549, 10 μM): 62%
Growth Percent ([2]; BT-549, 1.00E-5 Molar): 37.53%
GI% ([3]; HS 578 T, 10 μM): 72%
Growth Percent ([3]; HS 578T, 1.00E-5 Molar): 28.05%
GI% ([4]; SW-620, 10 μM): 61%
Growth Percent ([4]; SW-620, 1.00E-5 Molar): 39.05%
GI% ([5]; UACC-257, 10 μM): 28%
Growth Percent ([5]; UACC-257, 1.00E-5 Molar): 72.03%
GI% ([6]; SK-MEL-28, 10 μM): 35%
Growth Percent ([6]; SK-MEL-28, 1.00E-5 Molar): 65.22%
Selectivity ratio II/IX ([7]; KI hCA II / KI hCA IX): 1.79
Ki ([7]; mean from 3 assays): 46.4 µM
Selectivity ratio I/XII ([8]; KI hCA I / KI hCA XII): 11.2
Selectivity ratio II/XII ([8]; KI hCA II / KI hCA XII): 9.34
Ki ([8]; mean from 3 assays): 8.9 µM
Ki [9]: > 100 µM
GI% ([10]; OVCAR-5, 10 μM): 27%
Growth Percent ([10]; OVCAR-5, 1.00E-5 Molar): 73.07%
GI% ([11]; 10 μM): 54%
Growth Percent ([11]; 1.00E-5 Molar): 46.21%
GI% ([12]; RPMI-8226, 10 μM): 80%
Growth Percent ([12]; RPMI-8226, 1.00E-5 Molar): 20.19%
GI% ([13]; UACC-62, 10 μM): 44%
Growth Percent ([13]; UACC-62, 1.00E-5 Molar): 55.88%
GI% ([14]; KM12, 10 μM): 64%
Growth Percent ([14]; KM12, 1.00E-5 Molar): 35.66%
GI% ([15]; MOLT-4, 10 μM): 64%
Growth Percent ([15]; MOLT-4, 1.00E-5 Molar): 36.24%
GI% ([16]; OVCAR-4, 10 μM): 66%
Growth Percent ([16]; OVCAR-4, 1.00E-5 Molar): 34.25%
GI% ([17]; NCI-H226, 10 μM): 47%
Growth Percent ([17]; NCI-H226, 1.00E-5 Molar): 53.45%
GI% ([18]; HCC-2998, 10 μM): 38%
Growth Percent ([18]; HCC-2998, 1.00E-5 Molar): 62.09%
GI% ([19]; SF-539, 10 μM): 37%
Growth Percent ([19]; SF-539, 1.00E-5 Molar): 63.06%
GI% ([20]; 786-0, 10 μM): 48%
Growth Percent ([20]; 786-0, 1.00E-5 Molar): 51.90%
GI% ([21]; IGROV1, 10 μM): 21%
Growth Percent ([21]; IGROV1, 1.00E-5 Molar): 78.77%
GI% ([22]; 10 μM): 46%
Growth Percent ([22]; 1.00E-5 Molar): 54.40%
GI% ([23]; MDA-MB-435, 10 μM): 44%
Growth Percent ([23]; MDA-MB-435, 1.00E-5 Molar): 56.03%
GI% ([24]; 10 μM): 31%
Growth Percent ([24]; 1.00E-5 Molar): 68.60%
GI% ([25]; 10 μM): 71%
Growth Percent ([25]; 1.00E-5 Molar): 29.31%
GI% ([26]; COLO 205, 10 μM): – (Only GI% higher than 20% are shown)
Growth Percent ([26]; COLO 205, 1.00E-5 Molar): 81.88%
GI% ([27]; U251, 10 μM): 66%
Growth Percent ([27]; U251, 1.00E-5 Molar): 34.16%
